Values of other authors, collected in US12168000B2, “Methods of treating pain” (Scilex Holding Company, priority 2020, dated 2024).

Columns and labels:
[1] = upon oral administration
[2] = hydrophobic and highly permeable drug

time for peak plasma concentrations [1]: approximately 3.0 hours | class of the biopharmaceutics classification system [2]: class II
SMILES: Cc1ccc(-c2cc(C(F)(F)F)nn2-c2ccc(S(N)(=O)=O)cc2)cc1 [Celecoxib, 4-[5-(4-methylphenyl)-3-(trifluoromethyl)-1H-pyrazol-1-yl] benzenesulfonamide]
